Reference: US9822467B2, “Methods and systems relating to the selection of substrates comprising crystalline templates for the controlled crystallization of molecular species” (Massachusetts Institute of Technology, priority 2011, dated 2017)
“Also recorded” adds a separate entry of the source.

What was measured:
[1] = Nucleation induction time of AAP from ethanol in the presence of crystalline substrates; type: physicochemical; conditions: AAP Form I from ethanol; for Average induction times, τ: σ = 0.36, 15° C.; for Change in τ compared to bulk nucleation: σ = 0.36
Procedure: 1.5 mL aliquots of the stock solution were then syringe filtered into HPLC vials through a 0.2 μm nylon membrane in order to remove solid impurities. Crystallisations were carried out using a RS10 Clarity Solubility Station with non-intrusive infrared transmission probes and Integrity Client Software. The vials were initially held for 30 mins at 40° C. to ensure complete dissolution of AAP had occurred. After which they were cooled to 15° C. at a rate of 5° C./min and held at this temperature over a 24 hour period whilst the turbidity of the solution was monitored. Over the course of the experiments the stirring speed in each vial was held constant at 700 rpm. For those crystallizations requiring substrate, 3 mg was used. […] For each system studied 50 crystallisations were carried out to ensure a sufficient number of data points were obtained for statistical analysis.
The effectiveness of the five chosen substrates at promoting nucleation of AAP was measured by determining their effect on the nucleation induction time, τ. […] X-ray powder diffraction was used to confirm that it was the nucleation induction time of Form I being measured in all cases with any additional peaks in the diffraction patterns correspond to the substrates.
The percentage of vials crystallized as a function of time were plotted to give cumulative probability distributions of nucleation induction time for each system tested. […] It was assumed that nucleation follows a Poisson distribution (Equation 1). λ is the expected number of occurrences in the interval and k is the exact number of occurrences. If k=0 and […], then the probability of observing no nucleation events within a time, t, is given by equation 2 which is consistent with first order kinetic expressions previously used for studying nucleation events.
Using linear regression, plotting ln(P) against t (FIG. 10), the average induction times and associated errors were calculated (Table 3).

[2] = Polymorph obtained on crystallization of AAP from ethanol with or without crystalline substrate (DSC, XRPD); type: physicochemical; conditions: supersaturation 0.49 with respect to Form I; for Polymorphic form of AAP crystallized in the presence of substrate: substrate seeds added, DSC/XRPD, label = substrate
Description: Such an observation implies that for both polymorphs their nucleation rate constants follow the relationship kI>kII. It was hypothesized crystalline substrates would be able to selectively crystallize Form II if they fit the following two core criteria: 1) the unit cell parameters of the substrate were substantially similar to that of Form II and 2) the molecular functionality of the compound acting as the substrate is similar to that of AAP. By constraining the crystallographic properties of the substrate in this way, a three dimensional lattice match with Form II was targeted. Furthermore, selection of compounds with similar functionality as AAP was selected to stabilize the formation of a nucleus through favorable interactions such as hydrogen bonds.
The crystallizations of AAP from ethanol were then repeated in the presence of 50 mg of 4-APAA seeds, added after the desired supersaturation had been achieved. Once crystallization occurred, the crystals were filtered immediately and analyzed by DSC and x-ray powder diffraction. […] Furthermore no melting endotherm for Form I which is often observed in DSC traces of apparently pure Form II.
A plot of dimensionless potential energy (V/V0) as a function of orientation angle (θ) for the interacting (001) faces of Form II acetaminophen and graphite was prepared. The EpiCalc calculation was performed using the following lattice values for the (001) faces of Form II acetaminophen and graphite: (001) Form II acetaminophen: a=17.1657 Å, b=11.7773 and Å and β=90° (001); graphite: a=b=2.456 Å and α=90°. The acetaminophen overlayer dimensions were 25×25 cells and the orientation angle range tested was 180° with a step size of 0.25°.

[3] = cited from earlier work; for Stability of the polymorph: ambient conditions / air
[4] = Polymorph obtained on crystallization of 3-ABSA from water with or without AMMP substrate (XRPD)
[5] = 3 mg substrate, 700 rpm, 50 crystallisations, label = substrate

**Q.** What does the source list for `O.OC[C@H]1O[C@@H](O[C@H]2[C@H](O)[C@@H](O)[C@@H](O)O[C@@H]2CO)[C@H](O)[C@@H](O)[C@H]1O` [α-LMH, α-lactose monohydrate]?
**A.** Average induction times, τ [1, 5]: 410 ± 11 min; Change in τ compared to bulk nucleation ([1]; label = substrate): largest reduction in τ; Polymorphic form of AAP crystallized in the presence of substrate [2]: Form I

**Q.** With `CC(=O)Nc1ccc(O)cc1` [AAP, acetaminophen, reference compound] as the compound, how does the “Polymorphic form of AAP crystallized without substrate” value [2] read?
**A.** only Form I was obtained

**Q.** For `CC(=O)Nc1ccc(O)cc1` [AAP Form II, acetaminophen], which “Time until Form I crystallizes via solvent mediated phase transformation when seeding with Form II” value ([3]; in solution, seeded with Form II) is on record?
**A.** ≤ 15 min

**Q.** And the “Temperature of solid state transformation to Form I” value ([3]; solid state)?
**A.** Above 60 °C

**Q.** With `CC(=O)Nc1ccc(O)cc1` [AAP Form III, acetaminophen] as the compound, how does the “Stability of the polymorph” value [3] read?
**A.** highly unstable in air

**Q.** For `OC[C@@H](O)[C@@H](O)[C@H](O)[C@H](O)CO` [D-mannitol], which “Average induction times, τ” value [1, 5] is on record?
**A.** 390 ± 8 min

**Q.** And the “Change in τ compared to bulk nucleation” value ([1]; label = substrate)?
**A.** largest reduction in τ

**Q.** What about the “Polymorphic form of AAP crystallized in the presence of substrate” value [2] of the same compound?
**A.** Form I

**Q.** Which “Polymorphic form of AAP crystallized in the presence of substrate” value [2] does the source give for `[Cl-].[Na+]` [Sodium Chloride, sodium chloride] here?
**A.** Form I

**Q.** Which “Stability of the polymorph” value [3] does the source give for `Nc1cccc(S(=O)(=O)O)c1` [3-ABSA Form II, 3-aminobenzenesulfonic acid] here?
**A.** thermodynamically most stable form under ambient conditions

**Q.** Which “Average induction times, τ” value [1, 5] does the source give for `N[C@@H](Cc1c[nH]cn1)C(=O)O` [L-histidine] here?
**A.** 1910 ± 95 min

**Q.** And the “Change in τ compared to bulk nucleation” value ([1]; label = substrate)?
**A.** no measureable decrease in τ

**Q.** With `COc1cc(C)nc(N)n1` [AMMP] as the compound, how does the “Polymorphic form of 3-ABSA crystallized in the presence of substrate” value ([4]; aqueous solution saturated at 50° C., cooled to 10° C., 50 mg AMMP seeds, label = substrate) read?
**A.** Form I crystallized; also recorded: a mixture of Forms I and II was obtained

**Q.** With `Nc1ccc(CC(=O)O)cc1` [4-APAA, 4-aminophenylacetic acid] as the compound, how does the “Polymorphic form of AAP crystallized in the presence of substrate” value [2] read?
**A.** Form II crystallized

**Q.** For `Nc1cccc(S(=O)(=O)O)c1` [3-ABSA, 3-aminobenzenesulfonic acid], which “Polymorphic form of 3-ABSA crystallized without substrate” value ([4]; aqueous solution, no substrate) is on record?
**A.** only Form II was obtained; also recorded: Form II had crystallized

**Q.** Which “Average induction times, τ” value ([1]; bulk nucleation, no substrate) does the source give for `CC(=O)Nc1ccc(O)cc1` [AAP Form I, acetaminophen, reference compound] here?
**A.** 1930 ± 85 min

**Q.** What about the “Stability of the polymorph” value [3] of the same compound?
**A.** thermodynamically stable phase under ambient conditions
